In the supplement of paper PMC10307832:

Tests used:
Test in all cases: relative viability (nuclei count vs DMSO), 5 days (fraction); higher = more cells survive
Entinostat + Alpelisib = compound: Nc1ccccc1NC(=O)c1ccc(CNC(=O)OCc2cccnc2)cc1 [Entinostat] + Cc1nc(NC(=O)N2CCC[C@H]2C(N)=O)sc1-c1ccnc(C(C)(C)C(F)(F)F)c1 [Alpelisib] (partner 2 µM)
Summary of the method: (§1)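 Medians of duplicate plates are given as relative viability. That measure is the nuclei count in treated wells divided by the count in vehicle wells. Counts were taken on 4× images of lung cancer cell lines in 1536-well plates, 5 days after pin-tool dosing the day after seeding with one drug alone or a fixed anchor-drug dose plus five library-drug doses (not always all listed) in √10 steps.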

[1] = compound: C1COCCN1C2=NC(=NC3=C2OC4=C3C=CC=N4)C5=CC(=CC=C5)NC(=O)C6=CN=C(C=C6)N + C[C@]1(O)C[C@@H](c2nc(-c3ccc4ccc(-c5ccccc5)nc4c3)c3c(N)nccn32)C1 [Linsitinib] (partner 1 µM)
Summary of the method: as §1

Entinostat + Foretinib = compound: Nc1ccccc1NC(=O)c1ccc(CNC(=O)OCc2cccnc2)cc1 [Entinostat] + COc1cc2c(Oc3ccc(NC(=O)C4(C(=O)Nc5ccc(F)cc5)CC4)cc3F)ccnc2cc1OCCCN1CCOCC1 [Foretinib] (partner 0.25 µM)
Summary of the method: as §1

SGI-1776 + Navitoclax = compound: CN1CCC(CNc2ccc3ncc(-c4cccc(OC(F)(F)F)c4)n3n2)CC1 [SGI-1776] + CC1(C)CCC(c2ccc(Cl)cc2)=C(CN2CCN(c3ccc(C(=O)NS(=O)(=O)c4ccc(N[C@H](CCN5CCOCC5)CSc5ccccc5)c(S(=O)(=O)C(F)(F)F)c4)cc3)CC2)C1 [Navitoclax] (partner 0.5 µM)
Summary of the method: as §1

| Cell Line | relative viability (Entinostat + Alpelisib; first compound 0.02 µM) | relative viability (Entinostat + Alpelisib; first compound 0.06325 µM) | relative viability (Entinostat + Alpelisib; first compound 0.2 µM) | relative viability (Entinostat + Alpelisib; first compound 0.6325 µM) | relative viability (Entinostat + Alpelisib; first compound 2 µM) | relative viability ([1]; first compound 0.02 µM) | relative viability ([1]; first compound 0.06325 µM) | relative viability ([1]; first compound 0.2 µM) | relative viability ([1]; first compound 0.6325 µM) | relative viability ([1]; first compound 2 µM) | relative viability (Entinostat + Foretinib; first compound 0.02 µM) | relative viability (Entinostat + Foretinib; first compound 0.06325 µM) | relative viability (Entinostat + Foretinib; first compound 0.2 µM) | relative viability (Entinostat + Foretinib; first compound 0.6325 µM) | relative viability (Entinostat + Foretinib; first compound 2 µM) | relative viability (SGI-1776 + Navitoclax; first compound 0.08 µM) | relative viability (SGI-1776 + Navitoclax; first compound 0.8 µM) | relative viability (SGI-1776 + Navitoclax; first compound 2.53 µM) | relative viability (SGI-1776 + Navitoclax; first compound 8 µM) |
| --- | --- | --- | --- | --- | --- | --- | --- | --- | --- | --- | --- | --- | --- | --- | --- | --- | --- | --- | --- |
| NCI-H23 | 0.773 | 0.666 | 0.82 | 0.674 | 0.364 | 0.6 | 0.576 | 0.499 | 0.534 | 0.497 | 1.05 | 1.09 | 1.01 | 0.445 | 0.43 | 0.988 | 0.728 | 0.837 | 0.729 |
| LXF-289 | 1.01 | 1.02 | 0.931 | 0.808 | 0.588 | 1.02 | 1.07 | 0.975 | 0.986 | 0.76 | 1.01 | 0.916 | 0.88 | 0.825 | 0.59 | 0.966 | 0.989 | 0.963 | 0.983 |
| EKVX | 0.942 | 0.989 | 0.771 | 0.48 | 0.317 | 1.1 | 1.02 | 1.1 | 0.972 | 0.642 | 0.879 | 0.996 | 0.863 | 0.572 | 0.409 | 1.03 | 0.907 | 0.999 | 0.888 |
| LC-2-ad | 0.864 | 0.777 | 0.761 | 0.348 | 0.187 | 0.836 | 0.866 | 0.837 | 0.826 | 0.589 | 0.907 | 0.905 | 0.723 | 0.512 | 0.338 | 0.463 | 0.434 | 0.464 | 0.257 |
| NCI-H596 | 0.533 | 0.496 | 0.272 | 0.411 | 0.356 | 0.959 | 1.15 | 1.1 | 0.96 | 0.727 | 0.851 | 0.727 | 0.913 | 0.698 | 0.655 | 0.982 | 1.05 | 0.995 | 0.939 |
| NCI-H1734 | 0.765 | 0.779 | 0.681 | 0.737 | 0.581 | 0.865 | 0.938 | 0.86 | 0.84 | 0.467 | 0.883 | 0.939 | 0.929 | 0.773 | 0.603 | 0.829 | 0.851 | 0.884 | 0.759 |
